Laboratory results published in patent US20050234113A1, “Antioxidant and radical scavenging activity of synthetic analogs of desferrithiocin” (University of Florida Research Foundation, Inc., priority 2002, published 2005).
Marks after values point to notes of the source that are not given here.

Legend:
[1] = Quenching of the ABTS radical cation; details: for radical trapping compared with Trolox (in words): method of Example 6
Protocol: The iron chelators were tested for their ability to quench the radical cation formed from 2,2′-azinobis(3-ethylbenzothiazoline-6-sulfonic acid) (ABTS) by the method of Re et al. in Free Radic. Biol. Med. 26, 1231-1237 (1999). Briefly, a stock solution of ABTS radical cation was generated by mixing ABTS (10 mM, 2.10 mL) with K2S2O8 (8.17 mM, 0.90 mL) in H2O and […] deep blue-green ABTS radical cation was diluted in sufficient sodium phosphate (10 mM, pH 7.4) to give an A734 of about 0.900. Test compounds were added to a final concentration ranging from 1.25 to 15 μM, and the decrease in A734 was read after 1, 2, 4 and 6 min. The reaction was largely complete by 1 min, but the data presented are based on a 6-min reaction time.
In this assay, a fairly stable radical cation, ABTS^+, was examined, and Trolox, an analog of vitamin E, was used as a positive control. Briefly, the procedure involved generating the blue-green chromophore by the reaction of ABTS with K2S2O8. The radical has absorption maxima at λ=415, 645, 734, and 815 nm. The change in absorbance at 734 nm was noted 6 min after addition of the chelator of interest at various concentrations, and the slope of the ΔA734 vs. ligand concentration line was calculated.
The iron chelators were tested for their ability to quench the radical cation formed from 2,2′-azinobis(3-ethylbenzothiazoline-6-sulfonic acid) (ABTS) by a published method (Re, R., et al., Free Radical Biol. Med. 26:1231-1237 (1999). Briefly, a stock solution of ABTS radical cation was generated by mixing ABTS (10 mM, 2.10 mL) with K2S2O8 (8.17 mM, 0.90 mL) in H2O and allowing the solution to sit in the dark at room temperature for 18 hours. This stock solution of deep blue-green ABTS radical cation was diluted in sufficient sodium phosphate (10 mM, pH 7.4) to give an A734 of about 0.900. Test compounds were added to a final concentration ranging from 1.25 to 15 μM, and the decrease in A734 was read after 1, 2, 4 and 6 min. The reaction was largely complete by 1 min, but the data presented are based on a 6-min. reaction time.
This radical cation decolorization assay utilizes the pre-formed radical monocation of 2,2′-azinobis(3-ethylbenzothiazoline-6-sulfonic acid) (ABTS) and has been used to evaluate the antioxidant capacity of a large number of compounds and mixtures. Briefly, the change in absorbance of the blue-green chromophore was recorded after the addition of the chelator of interest at each of the different concentrations, and the slope of the ΔA734 vs. ligand concentration line was calculated. The positive control for this reaction was Trolox, an analogue of vitamin E. The decrease in A734 as a function of ligand concentration is the comparitor among the five compounds evaluated. Trolox, L1, DFO, (S)-4′-(HO)-DADMDFT and BDU (Table 3). All four of the iron chelators performed better than Trolox; DFO≈BDU>(S)-4′-(HO)-DADMDFT>L1>Trolox. Thus, all of these ligands could be expected to serve as excellent radical scavengers.

[2] = tested on: acetic acid-induced colitis; assay: Acetic acid-induced colitis in rats, densitometric image analysis of colonic damage; format: in vivo; details: for Damage (%): 650 μmol kg^−1 intracolonically 30 min before 4% acetic acid, mean ± standard deviation; for protection against acetic acid-induced colonic damage (in words): intracolonic, image analysis and MPO assay
Protocol: (§1) The ligands were administered to the rats intracolonically as a suspension or solution in distilled water (2 mL) at a dose of 650 μmol kg^−1. The drug solutions were made fresh for each experiment. ROWASA®, the pharmaceutical preparation which contains 5-ASA (2 mL, 66.7 mg mL^−1) was given at a dose of 2318 μmol kg^−1. Control rats received distilled water (2 mL), administered intracolonically.
(§2) Animal care and experimental procedures were approved by the Institutional Animal Care and Use Committee. Colitis was induced by a modification of published methods. Briefly, the rats were anesthetized with sodium pentobarbital, 55 mg kg^−1 intraperitoneally. The abdomen was shaved and prepared for surgery. A midline incision was made, and the cecum and proximal colon were exteriorized. A reversible suture was placed at the junction of the cecum and proximal colon. The colon was rinsed with saline (10 mL), and the fluid and intestinal contents were gently expressed out the rectum. A gum-based rectal plug was inserted. The compound of interest, or distilled water in the control animals (2 mL), was injected intracolonically just distal to the ligature. The cecum and proximal colon were returned to the abdominal cavity; the compound was allowed to remain in the gut for 30 min. Then, the cecum and proximal colon were reexteriorized. The rectal plug was removed, and the drug was gently expressed out of the colon. Acetic acid (4%, 2 mL) was injected into the proximal colon over a 15-20-second time period. The acid was allowed to remain in the gut until one minute had passed (i.e., 40-45 seconds after the end of the acid administration). The no acid control rats received distilled water (2 mL), which was administered in the same manner as was the acetic acid. Air (10 mL) was then injected into the proximal colon to expel the acid or water. The cecal/proximal colon ligature was removed, the gut was returned to the abdominal cavity, and the incisions were closed. The animals were allowed to recover overnight and were sacrificed 24 hr later. The entire length of the colon was removed and assessed for damage both densitometrically and biochemically.
Gross damage was quantitated using Photoshop-based image analysis (version 5.0, Adobe Systems, Mountain View, Calif., USA) on an Apple iMac computer. The Magic Wand tool in the Select menu of Photoshop was used to place the cursor on an area of obvious damage. The tolerance level of the Magic Wand tool was set at 30. The damaged areas were automatically selected by using the Similar command in the Select menu. Then, the Eyedropper tool was used to determine the range of the damage in the highlighted areas. Individual colon images were copied to a blank Photoshop page. The Magic Wand tool, with a tolerance set to 100, was used to select all of the pixels in the colon sample. Then, the Histogram tool, which generates a graph in which each vertical line represents the number of pixels associated with a brightness level, was selected in the Image menu. The Red channel was then selected; the darker (damaged areas) appear on the left side of the histogram and the lighter (normal) areas are on the right side. The cursor was then placed on the histogram, the color range determined in an earlier step was selected, and the number of pixels encompassing that range and the percent damage were quantified automatically.
Two means were employed to assess the damage to the colon in the presence and absence of ligand, computer-based image analysis and colonic MPO measurement. The densitometric method removes much of the subjectivity involved in the simple scoring approaches. A digital image of the prepared colonic tissue is taken, and a clearly damaged segment is highlighted on the screen. Once the computer identifies all other segments of the intestine with the same or greater damage, a pixel number is generated; this number makes it possible to calculate the percentage of damaged intestine.

[3] = tested on: Myeloperoxidase (MPO) activity in colonic tissue; assay: Myeloperoxidase (MPO) assay in colonic tissue of rats with acetic acid-induced colitis; format: in vivo; details: 650 μmol kg^−1 intracolonically 30 min before 4% acetic acid, mean ± standard deviation
Protocol: as §1, §2
The activity of MPO was measured in colonic tissue by a modification of the method of Krawisz et al. in Gastroenterology 87, 1344-1350 (1984). Each excised colon was homogenized in 9 volumes of homogenization buffer (0.5% hexadecyltrimethylammonium bromide (HDTMA) in 50 mM sodium acetate, pH 6.0); this homogenate was centrifuged at 1200 g for 20 min at 4° C. A sample of the supernatant (1.8 mL) was transferred into a microcentrifuge tube and stored frozen at −20° C. for up to one week. Prior to assay, the thawed aliquot was centrifuged at about 10,000 g for 15 minutes at 4° C. The final supernatant (33 μL) was added to a solution of o-dianisidine HCl (0.17 mg mL^−1 in 50 mM sodium acetate, pH 6.0, made fresh daily and filtered immediately before use) (950 μL), the mixture was vortexed, and the peroxidase reaction was initiated by the addition of H2O2 to 50 mM sodium acetate, pH 6.0, made fresh daily (16.7 μL). The A470 at room temperature (ca. 23° C.) was read at 15-second intervals for 2 min. The rates were assessed graphically and are presented as change in milliabsorbance units (ΔmAU)/min per g tissue. Under these conditions, 0.1 “Unit” of purified human leukocyte myeloperoxidase (Sigma M-6908) produced a ΔA470 of about 400 mAU/min.
The biochemical measurement involves measuring the level of MPO in a sample of homogenate of the whole rat colon. When the colon is damaged by the acetic acid, there is an extravasation of neutrophils. The extent of this infiltration can serve as a quantitative marker for tissue damage. Although other leukocytes, such as eosinophils and monocytes, also contribute to the inflammatory response, their contribution is small; the majority of the cells recruited during the acute inflammatory response are neutrophils. […]

[4] = Prevention of iron-mediated oxidation of ascorbate (ascorbate-mediated reduction of Fe(III)); details: ascorbate 100 μM, FeCl3 30 μM, pH 7.4, ligand/Fe ratios 0-3, 40 min
Protocol: (§3) The iron chelators were tested for their ability to diminish the iron-mediated oxidation of ascorbate by the method of Dean and Nicholson (Free Radical Res. 20, 83-101 (1994)). Briefly, a solution of freshly prepared ascorbate (100 μM) in sodium phosphate buffer (5 mM, pH 7.4) was incubated in the presence of FeCl3 (30 μM) and chelator (ligand/Fe ratios varied from 0-3) for 40 min. The A265 was read at 10 and 40 min; the ΔA265 in the presence of ligand was compared to that in its absence.
The role of chelators in either inhibition or promotion of the Fenton reaction is related to their capacity to prevent Fe(III) from being reduced to Fe(II). Fe(II) is required for the reduction of H2O2 to HO. and HO^−. The assay involves spectrophotometrically monitoring the disappearance of ascorbate at pH 7.4 in the presence of FeCl3 and chelator at several ligand/Fe ratios. Under these conditions, ascorbate is oxidized to an L-ascorbyl radical anion. This anion then disproportionates to dehydroascorbic acid and ascorbate.
as §3, with “chelators nitrilotriacetic acid (NTA), 1,2-dimethyl-3-hydroxypyridin-4-one (L1), desferrioxamine B (DFO), (S)-4′-(HO)-DADMDFT, and (S,S)-1,11-Bis[5-(4-carboxyl-4,5-dihydro-1,3-thiazol-2-yl)-2,4-dihydroxyphenyl]-4,8-dioxaundecane (BDU)” for “chelators”, “Nicholson, Free” for “Nicholson (Free”, “20:” for “20,”, “(1994).” for “(1994)).”
The measurement examines the disappearance of ascorbate. It is known that DFO, a hydroxamate chelator that forms a 1:1 complex with Fe(III) at a formation constant of approximately 10^31 M^−1, prevents ascorbate-mediated reduction of Fe(III); it serves as a positive control in the present study. Both NTA and L1 promote ascorbate-mediated reduction of Fe(III) and serve as negative controls.

[5] = Quenching of the ABTS radical cation; details: Table 5; 6-min reaction, initial OD 1.000
[6] = Table 1, A734, six-minute reaction, pH 7.4, 1.25 to 15 μM

SMILES: CN(O)C(=O)C1CSC(c2ncccc2O)=N1 (centres unmarked) [DMDFT-NMH, desmethyldesferrithiocin-N-methyl-hydroxamate]
- Slope × 10^3 OD units/μM (ABTS radical cation quenching) [1, 6]: −47.4 × 10^3 OD units/μM
- Damage (%) [2]: 22 ± 17%
- protection against acetic acid-induced colonic damage (in words) [2]: most effective
- MPO activity [3]: 14406 ± 8683 mAU min^−1g of colonic tissue^−1

SMILES: CN(O)C(=O)[C@H]1CSC(c2ccc(O)cc2O)=N1 [4′-(HO)-DADMDFT-NMH]
- Slope × 10^3 OD units/μM (ABTS radical cation quenching) [1, 6]: −135.5 × 10^3 OD units/μM
- Damage (%) [2]: 39 ± 11%
- MPO activity [3]: 18426 ± 20930 mAU min^−1g of colonic tissue^−1

SMILES: COc1ccc(C2=NC(C)(C(=O)O)CS2)c(O)c1 (centres unmarked) [4′-(CH3O)-DADFT, 4′-methoxydesazadesferrithiocin]
- effect on ascorbate-mediated reduction of Fe(III) (in words) [4]: slowed Fe(III) reduction considerably
- radical trapping compared with Trolox (in words) [1]: as effective as Trolox
- Slope × 10^3 OD units/μM (ABTS radical cation quenching) [5]: −36 × 10^3 OD units/μM

SMILES: Cc1c(C)c2c(c(C)c1O)CCC(C)(C(=O)O)O2 (centres unmarked) [Trolox, reference compound]
- Slope × 10^3 OD units/μM (ABTS radical cation quenching) [1, 6]: −36.6 × 10^3 OD units/μM
- Slope × 10^3 OD units/μM (ABTS radical cation quenching) ([1]; Table 3, A734, 6-min reaction, values marked b are the inventors' unpublished results): −37^b × 10^3 OD units/μM
- Slope × 10^3 OD units/μM (ABTS radical cation quenching) [5]: −37 × 10^3 OD units/μM

SMILES: O=C(O)C1CSC(c2ncccc2O)=N1 (centres unmarked) [DMDFT, desmethyldesferrithiocin]
- Slope × 10^3 OD units/μM (ABTS radical cation quenching) [1, 6]: −1.3 × 10^3 OD units/μM
- Damage (%) [2]: 61 ± 15%
- MPO activity [3]: 39229 ± 27109 mAU min^−1g of colonic tissue^−1

SMILES: COc1ccc(C2=N[C@@H](C(=O)O)CS2)c(O)c1 [4′-(CH3O)-DADMDFT, 4′-methoxydesazadesmethyldesferrithiocin]
- effect on ascorbate-mediated reduction of Fe(III) (in words) [4]: slowed Fe(III) reduction considerably
- radical trapping compared with Trolox (in words) [1]: as effective as Trolox
- Slope × 10^3 OD units/μM (ABTS radical cation quenching) [5]: −33 × 10^3 OD units/μM

SMILES: CN(O)C(=O)[C@@]1(C)CSC(c2ccc(O)cc2O)=N1 [4′-(HO)-DADFT-NMH]
- Slope × 10^3 OD units/μM (ABTS radical cation quenching) [1, 6]: −141.4 × 10^3 OD units/μM
- Damage (%) [2]: 46 ± 23%
- protection against acetic acid-induced colonic damage (in words) [2]: moderately effective
- MPO activity [3]: 41021 ± 35525 mAU min^−1g of colonic tissue^−1

SMILES: Cc1ccc(O)c(C2=NC(C(=O)O)CC2)c1 (centres unmarked) [PCA, 3,4-dihydro-5-(2-hydroxy-5-methylphenyl)-2H-pyrrole-2-carboxylic acid]
- Slope × 10^3 OD units/μM (ABTS radical cation quenching) [1, 6]: −3.3 × 10^3 OD units/μM
- Damage (%) [2]: 44 ± 11%
- MPO activity [3]: 29942 ± 11255 mAU min^−1g of colonic tissue^−1
